In PubChem BioAssay (NCI):
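96-well plates; 48 h exposure; 5 concentrations. Endpoints by linear interpolation between flanking doses. Not reached: highest tested concentration assigned. GI50 = concentration required for 50% inhibition of growth. At the TGI there is no net growth.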

Assays:
Experiment in all cases: DTP human tumour cell line panel, 48 h
HOP-62 NSCLC = tested on: HOP-62 NSCLC
K-562 leukemia = tested on: K-562 leukemia
KM12 colon = tested on: KM12 colon
M14 melanoma = tested on: M14 melanoma
MDA-N = tested on: MDA-N
RPMI-8226 leukemia = tested on: RPMI-8226 leukemia
RXF 393 renal = tested on: RXF 393 renal
SK-MEL-5 melanoma = tested on: SK-MEL-5 melanoma
SN12C renal = tested on: SN12C renal
SNB-19 CNS = tested on: SNB-19 CNS
T-47D breast = tested on: T-47D breast
UO-31 renal = tested on: UO-31 renal

Compound | TGI (HOP-62 NSCLC) [µM] | TGI (K-562 leukemia) [µM] | TGI (KM12 colon) [µM] | TGI (M14 melanoma) [µM] | TGI (MDA-N) [µM] | TGI (RPMI-8226 leukemia) [µM] | TGI (RXF 393 renal) [µM] | TGI (SK-MEL-5 melanoma) [µM] | TGI (SN12C renal) [µM] | TGI (SNB-19 CNS) [µM] | TGI (T-47D breast) [µM] | TGI (UO-31 renal) [µM] | GI50 (K-562 leukemia) [µM] | GI50 (KM12 colon) [µM] | GI50 (MDA-N) [µM] | GI50 (RPMI-8226 leukemia) [µM] | GI50 (SK-MEL-5 melanoma) [µM] | GI50 (SN12C renal) [µM] | GI50 (SNB-19 CNS) [µM]
CC1OC(OC2C(O)COC(OC3C(C)OC(OC4C(OC(=O)[C@]56CCC(C)(C)C[C@@H]5C5=CCC7[C@@]8(C)C[C@H](O)[C@H](OC9OC(CO)C(O)C(O)C9O)[C@@](C)(CO)[C@@H]8CC[C@@]7(C)[C@]5(C)CC6)OCC(O)C4O)C(O)C3O)C2O)C(O)C(O)C1O (stereo partly drawn) | 37.7 | > 100 | > 100 | 41.9 | 42.3 | > 100 | 33.5 | 39.8 | 44.4 | 38.7 | 47.4 | 28.4 |  |  |  |  |  |  | 
Cn1c(-c2ccco2)ccc1-c1ccc(C=O)o1 | > 100 | > 100 | > 100 | > 100 | > 100 | > 100 | > 100 | > 100 | > 100 | > 100 | > 100 | > 100 |  |  |  |  |  |  | 
FC1(F)ON2CCc3ccccc3C2[C@H]1c1ccccc1 (stereo partly drawn) | > 100 | > 100 | > 100 | > 100 | > 100 | > 100 | > 100 | > 100 | > 100 | > 100 | > 100 | > 100 | > 100 | > 100 | > 100 | > 100 | > 100 | > 100 | > 100
Cc1nc(-c2ccccc2)cn2c1nc1ccccc12 | 49.6 | > 100 | > 70.3 | > 82.8 | 43.5 | > 100 | 55.5 | 28.6 | > 84.7 | > 76.2 | > 24.9 | 46.5 |  |  |  |  |  |  | 
COC(=O)[C@H](Cc1ccccc1)NC(=O)c1ccc(CNC(=O)/C=C/c2ccc(OCc3ccccc3)cc2)cc1 | 26.3 | > 100 | > 100 | 7.38 | 5.43 | > 100 | 18.7 | 33.4 | 32.6 | 36.8 | 72.2 | 29.5 |  |  |  |  |  |  | 
COc1cc(C2C=C(c3ccccc3)Oc3cc4c(cc32)OCO4)cc(OC)c1OC (stereo not drawn) | > 100 | > 100 | > 30.6 | > 100 | > 16.6 | > 100 | > 100 | > 47.8 | > 96.3 | > 100 | > 100 | > 100 |  |  |  |  |  |  | 
CN(C)CCNc1ccc2ncn3c4ccc(O)cc4c(=O)c1c23 | 5.35 | 29 | > 35.7 | 8.47 | 15.1 | 13.1 | 2.58 | 8.52 | 13.3 | 17.2 | 25 | 8.06 |  |  |  |  |  |  | 
O=C(Nc1ccccc1)N(CCN(Cc1ccccc1)C(=O)Nc1ccccc1)CCN(Nc1ccccc1)C(=O)Nc1ccccc1 | > 100 | > 100 | > 100 | > 100 | > 100 | > 100 | > 100 | > 100 | > 100 | > 100 | > 100 | > 100 |  |  |  |  |  |  | 
